Patent publication US20210401710A1, “AZOXYSTROBIN EFFICACY IN PERSONAL CARE FORMS” (The Procter & Gamble Company, priority 2020, published 2021)

Tested on: Malassezia furfur (CBS 7982)
Assay: In Vitro Antifungal Minimum Inhibitory Concentration (MIC) Testing
Assay type: cell-based
Details: azoxystrobin itself against Malassezia, value used in the model
Procedure: Malassezia furfur (CBS 7982) is maintained continuously as a culture at 31° C. in a 250-ml vent-capped polycarbonate Erlenmeyer flask by combining approximately 50 ml of mDixon growth medium and 2.5 ml of previously grown Malassezia culture. For each assay, Malassezia cells from 24-hour-old culture (approximately 7.5×10^8 cells/ml) are diluted 500-fold into mDixon growth medium. Micropipettes are used to transfer 295 ul of diluted cells to each well of a Beckman 267007 polypropylene round-bottom deep-well plate. Product forms are prepared for testing as concentrated stocks in water. Micropipettes are used to transfer 5 ul of appropriately diluted product form to the diluted Malassezia cells in the round-bottom deep-well plate. A semipermeable sealing film is applied to the plate which is then covered with water-soaked cotton batting. The deep-well plates are shaken at 31° C. on a Heidolph Titramax 1000 shaker at 1350 rpm for approximately 20 hours. The samples are mixed by micropipetting before transferring 200 ul of sample culture from each well to a Corning 3596 polystyrene plate. The plates are read immediately for absorbance at 600 nm using a Molecular Devices SpectraMax M5 plate reader. MIC values are presented as ppm of active.

CO/C=C(/C(=O)OC)c1ccccc1Oc1cc(Oc2ccccc2C#N)ncn1 [Azoxystrobin]
minimal inhibitory concentration (MIC): 0.2-0.9 ppm
